Data published in US20230399360A1, “TERLIPRESSIN-OCTADECANEDIOIC ACID CONJUGATE FOR VASOCONSTRICTIVE THERAPY” (Northwestern University, priority 2019, published 2023).
Bridge positions count the residues as written; N and C are the ends. Peptide text beside a SMILES is read from it. * marks the point of attachment. C18 diacid = O=C(O)CCCCCCCCCCCCCCCCC(=O)*

Key:
in vivo = details: mouse
Procedure: (§1) Blood samples were drawn from the animals (approximately 100 μl) at different time points (1 hr, 3 hr, 6 hr, 24 hr) following the injection. The plasma was separated from the whole blood by centrifugation at 7,000 RPM for 10 minutes and the supernatant was transferred to a new tube. To separate the peptides or peptide conjugates from the plasma proteins, the proteins were denatured using a 7M guanidinium hydrochloride solution mixed 1:1 with the plasma and incubated at room temperature for 15 minutes. Subsequently, to the solution was diluted 10-fold with cold ethanol and the samples were incubated at −20° C. After 1 hour incubation the samples were centrifuged at 10,000 RPM for 10 minutes to precipitate the proteins, and the supernatant was transferred to a new tube. Samples were kept at −80° C. until analyzed.
(§2) 5-20 μl of the ethanol solution were injected to a QTRAP 6500+LC-MS/MS system (SCIEX) for detecting the drug concentration. Mass spectra were obtained and the areas under the curves were evaluated against a calibration curve made formerly.
(§3) Blood pressure measurements were taken for the first 20 minutes following drug injection, and subsequently blood samples were drawn at 1, 3, 6 and 24 hours.

V1 receptor = molecular target: T1, V1 receptor (Homo sapiens, UniProt P37288); assay: Calcium influx assay (Fluo-4) in primary human aortic smooth muscle cells; format: cell-based; details: 10^-8 to 10^-4 M, fluorescence over 5 min
T1 construct: Primary human aortic smooth muscle cells (ATCC, PCS-100-012 cell line) were cultured in vascular cell basal medium; host or cells: primary human aortic smooth muscle cells
Procedure: Primary human aortic smooth muscle cells (ATCC, PCS-100-012 cell line) were cultured in vascular cell basal medium supplemented with rhFGF-basic 5 ng/mL, rh insulin 5 μg/mL, ascorbic acid 50 μg/mL, L-glutamine 10 mM, rh EGF 5 ng/mL, fetal bovine serum 5%.
Calcium influx assays were performed using Fluo-4 direct calcium assay kit (ThermoFisher) on cells between passage numbers 3 to 6. To this end, cells were passaged and plated in a 96-well black tissue culture plate in a concentration of 10,000 cells per well followed by incubation in 37° C. and 5% CO2 for 48 hours. Cells were loaded with the dye and incubated for 1 hr at 37° C. and 5% CO2. Then, terlipressin peptide or terlipressin-ODDA was added to the wells in concentrations ranging from 10^−8 to 10^−4 M, and fluorescence was measured immediately on a Perkin Elmer EnSpire 2300 plate reader. Signal was measured at 530 nm following excitation at 488 nm at 999 time points over a 5 min period.

[1] = mouse, in vivo
Procedure: as §1, §2, §3

[2] = Non-invasive tail-cuff systolic blood pressure measurement in mice; format: in vivo, C57BL/6 mice; details: for increase in systolic blood pressure: C57BL mice, intraperitoneal injection, 0.1 to 10 μg/gr body weight, 20 minutes of measurement, compared with PBS vehicle
[3] = human, in vivo; cited from earlier work
[4] = listed as terlipressin conjugate
[5] = mice, systolic blood pressure vs baseline (FIG. 8)

T1 sequence (P37288 whole entry): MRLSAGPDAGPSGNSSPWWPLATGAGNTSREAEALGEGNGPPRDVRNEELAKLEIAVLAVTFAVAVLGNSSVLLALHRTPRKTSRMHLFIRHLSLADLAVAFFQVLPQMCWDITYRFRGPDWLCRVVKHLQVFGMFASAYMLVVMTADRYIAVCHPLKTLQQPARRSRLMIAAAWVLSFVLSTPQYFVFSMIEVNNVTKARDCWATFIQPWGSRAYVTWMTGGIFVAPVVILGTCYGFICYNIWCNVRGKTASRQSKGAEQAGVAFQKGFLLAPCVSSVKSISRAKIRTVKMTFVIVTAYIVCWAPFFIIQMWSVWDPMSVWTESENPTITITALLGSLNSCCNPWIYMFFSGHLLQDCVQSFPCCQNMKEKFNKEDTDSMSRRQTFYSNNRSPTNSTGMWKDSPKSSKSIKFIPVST

| Structure (SMILES) | half-life (in vivo) [h] | activation of smooth muscle cells indicated by influx of intracellular calcium (V1 receptor; listed as conjugate) | activation of smooth muscle cells indicated by influx of intracellular calcium (V1 receptor; [4]) | activation of smooth muscle cells indicated by influx of intracellular calcium (V1 receptor; listed as terlipressin conjugates) | detection in plasma by LC-MS-MS [1] | half-lifetime in plasma [1] | increase in systolic blood pressure [2] | increase in systolic blood pressure ([2]; listed as C18 ODDA-terlipressin conjugates) | increase in systolic blood pressure ([2]; listed as ODDA-terlipressin conjugates) | increase in systolic blood pressure [2, 4] | course of systolic blood pressure over time after injection [2, 5] | half life following IV administration [3] | time of peak in measured blood pressure following the injection [2, 5] [min] |
| --- | --- | --- | --- | --- | --- | --- | --- | --- | --- | --- | --- | --- | --- |
| NCCCCC(NC(=O)C1CCCN1C(=O)C1CSSCC(NC(=O)CNC(=O)CNC(=O)CNC(=O)CCCCCCCCCCCCCCCCC(=O)O)C(=O)NC(Cc2ccc(O)cc2)C(=O)NC(Cc2ccccc2)C(=O)NC(CCC(N)=O)C(=O)NC(CC(N)=O)C(=O)N1)C(=O)NCC(N)=O (stereo not shown) [C18-terlipressin, octadecanedioic acid-terlipressin] ({C18 diacid}-GGGCYFQNCPKG-NH2; disulfide 4-9; configuration not given here) | ~1 | can stimulate vasocontraction in cultured smooth muscle cells | can stimulate response in cultured smooth muscle cells | can bind to and activate smooth muscle cells | very sharp and clear peaks | about 1 hour | clear increase in pressure | increase the systolic blood pressure | increase the systolic blood pressure | Rise in blood pressure was observed | more stable pressure over time | – | – |
| NCCCC[C@H](NC(=O)[C@@H]1CCCN1C(=O)[C@@H]1CSSC[C@H](NC(=O)CNC(=O)CNC(=O)CN)C(=O)N[C@@H](Cc2ccc(O)cc2)C(=O)N[C@@H](Cc2ccccc2)C(=O)N[C@@H](CCC(N)=O)C(=O)N[C@@H](CC(N)=O)C(=O)N1)C(=O)NCC(N)=O [terlipressin, Terlipressin] (H-GGGCYFQNCPKG-NH2; disulfide 4-9) | – | – | – | – | no terlipressin was detected at all | – | clear increase in pressure | – | – | – | continuous drop in pressure | less than 6 minutes | 5 |
